From PubChem BioAssay (NCI)
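Five concentrations, 48 hours, 96-well plates. TGI denotes the concentration required for complete inhibition of growth.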

Columns and labels:
Assay in all cases: NCI tumour cell line growth inhibition, 48 h
RPMI-8226 leukemia = tested on: RPMI-8226 leukemia
KM20L2 colon = tested on: KM20L2 colon
HL-60(TB) leukemia = tested on: HL-60(TB) leukemia
UO-31 renal = tested on: UO-31 renal
RXF 393 renal = tested on: RXF 393 renal
SK-MEL-2 melanoma = tested on: SK-MEL-2 melanoma
HOP-92 NSCLC = tested on: HOP-92 NSCLC
MCF7 breast = tested on: MCF7 breast
IGROV1 ovarian = tested on: IGROV1 ovarian
DMS 114 small cell lung = tested on: DMS 114 small cell lung
SNB-19 CNS = tested on: SNB-19 CNS
HCT-116 colon = tested on: HCT-116 colon
SK-MEL-28 melanoma = tested on: SK-MEL-28 melanoma
A549 NSCLC = tested on: A549 NSCLC
HCC-2998 colon = tested on: HCC-2998 colon
HCT-15 colon = tested on: HCT-15 colon
NCI-H460 lung = tested on: NCI-H460 lung
HOP-18 NSCLC = tested on: HOP-18 NSCLC
KM12 colon = tested on: KM12 colon
COLO 205 colon = tested on: COLO 205 colon
DLD-1 colon = tested on: DLD-1 colon
A498 renal = tested on: A498 renal
SF-295 CNS = tested on: SF-295 CNS
MALME-3M melanoma = tested on: MALME-3M melanoma
P388 leukemia = tested on: P388 leukemia
SF-539 CNS = tested on: SF-539 CNS
NCI-H522 lung = tested on: NCI-H522 lung
LOX IMVI melanoma = tested on: LOX IMVI melanoma
CCRF-CEM leukemia = tested on: CCRF-CEM leukemia
UACC-62 melanoma = tested on: UACC-62 melanoma
OVCAR-3 ovarian = tested on: OVCAR-3 ovarian
SN12C renal = tested on: SN12C renal
MOLT-4 leukemia = tested on: MOLT-4 leukemia
EKVX NSCLC = tested on: EKVX NSCLC
HT29 colon = tested on: HT29 colon
SK-MEL-5 melanoma = tested on: SK-MEL-5 melanoma
SNB-75 CNS = tested on: SNB-75 CNS
DMS 273 small cell lung = tested on: DMS 273 small cell lung
SN12K1 renal = tested on: SN12K1 renal
CAKI-1 renal = tested on: CAKI-1 renal
SNB-78 CNS = tested on: SNB-78 CNS
M19-MEL melanoma = tested on: M19-MEL melanoma
K-562 leukemia = tested on: K-562 leukemia
XF 498 CNS = tested on: XF 498 CNS
NCI/ADR-RES ovarian = tested on: NCI/ADR-RES ovarian
P388/ADR leukemia = tested on: P388/ADR leukemia
SW-620 colon = tested on: SW-620 colon
U251 CNS = tested on: U251 CNS
OVCAR-8 ovarian = tested on: OVCAR-8 ovarian
SK-OV-3 ovarian = tested on: SK-OV-3 ovarian
NCI-H23 lung = tested on: NCI-H23 lung
SF-268 CNS = tested on: SF-268 CNS
OVCAR-4 ovarian = tested on: OVCAR-4 ovarian
OVCAR-5 ovarian = tested on: OVCAR-5 ovarian
UACC-257 melanoma = tested on: UACC-257 melanoma
HOP-62 NSCLC = tested on: HOP-62 NSCLC

Compound: CN(C)C(=O)N(CCCl)N=O
- TGI (RPMI-8226 leukemia): > 100 µM
- TGI (KM20L2 colon): > 100 µM
- TGI (HL-60(TB) leukemia): > 100 µM
- TGI (UO-31 renal): > 100 µM
- TGI (RXF 393 renal): > 100 µM
- TGI (SK-MEL-2 melanoma): > 100 µM
- TGI (HOP-92 NSCLC): > 100 µM
- TGI (MCF7 breast): > 100 µM
- TGI (IGROV1 ovarian): > 100 µM
- TGI (DMS 114 small cell lung): > 100 µM
- TGI (SNB-19 CNS): > 100 µM
- TGI (HCT-116 colon): > 100 µM
- TGI (SK-MEL-28 melanoma): > 100 µM
- TGI (A549 NSCLC): > 100 µM
- TGI (HCC-2998 colon): > 100 µM
- TGI (HCT-15 colon): > 100 µM
- TGI (NCI-H460 lung): > 100 µM
- TGI (HOP-18 NSCLC): > 100 µM
- TGI (KM12 colon): > 100 µM
- TGI (COLO 205 colon): > 100 µM
- TGI (DLD-1 colon): > 100 µM
- TGI (A498 renal): > 100 µM
- TGI (SF-295 CNS): > 100 µM
- TGI (MALME-3M melanoma): > 100 µM
- TGI (P388 leukemia): > 100 µM
- TGI (SF-539 CNS): > 100 µM
- TGI (NCI-H522 lung): > 100 µM
- TGI (LOX IMVI melanoma): > 100 µM
- TGI (CCRF-CEM leukemia): > 100 µM
- TGI (UACC-62 melanoma): > 100 µM
- TGI (OVCAR-3 ovarian): > 100 µM
- TGI (SN12C renal): > 100 µM
- TGI (MOLT-4 leukemia): > 100 µM
- TGI (EKVX NSCLC): > 100 µM
- TGI (HT29 colon): > 100 µM
- TGI (SK-MEL-5 melanoma): > 100 µM
- TGI (SNB-75 CNS): > 100 µM
- TGI (DMS 273 small cell lung): > 100 µM
- TGI (SN12K1 renal): > 100 µM
- TGI (CAKI-1 renal): > 100 µM
- TGI (SNB-78 CNS): > 100 µM
- TGI (M19-MEL melanoma): > 100 µM
- TGI (K-562 leukemia): > 100 µM
- TGI (XF 498 CNS): > 100 µM
- TGI (NCI/ADR-RES ovarian): > 100 µM
- TGI (P388/ADR leukemia): > 100 µM
- TGI (SW-620 colon): > 100 µM
- TGI (U251 CNS): > 100 µM
- TGI (OVCAR-8 ovarian): > 100 µM
- TGI (SK-OV-3 ovarian): > 100 µM
- TGI (NCI-H23 lung): > 100 µM
- TGI (SF-268 CNS): > 100 µM
- TGI (OVCAR-4 ovarian): > 100 µM
- TGI (OVCAR-5 ovarian): > 100 µM
- TGI (UACC-257 melanoma): > 100 µM
- TGI (HOP-62 NSCLC): > 100 µM

Compound: NC1CCCCC1
- TGI (RPMI-8226 leukemia): > 562 µM
- TGI (KM20L2 colon): > 562 µM
- TGI (HL-60(TB) leukemia): 380 µM
- TGI (RXF 393 renal): > 562 µM
- TGI (SK-MEL-2 melanoma): > 562 µM
- TGI (HOP-92 NSCLC): > 562 µM
- TGI (MCF7 breast): > 562 µM
- TGI (IGROV1 ovarian): > 562 µM
- TGI (DMS 114 small cell lung): > 56.2 µM
- TGI (SNB-19 CNS): > 562 µM
- TGI (HCT-116 colon): > 562 µM
- TGI (SK-MEL-28 melanoma): > 562 µM
- TGI (A549 NSCLC): > 562 µM
- TGI (HCC-2998 colon): > 562 µM
- TGI (HCT-15 colon): > 562 µM
- TGI (NCI-H460 lung): > 562 µM
- TGI (HOP-18 NSCLC): < 0.0562 µM
- TGI (KM12 colon): > 562 µM
- TGI (COLO 205 colon): > 56.2 µM
- TGI (DLD-1 colon): > 562 µM
- TGI (A498 renal): > 562 µM
- TGI (MALME-3M melanoma): > 562 µM
- TGI (P388 leukemia): 243 µM
- TGI (SF-539 CNS): 418 µM
- TGI (NCI-H522 lung): > 562 µM
- TGI (LOX IMVI melanoma): > 562 µM
- TGI (CCRF-CEM leukemia): > 562 µM
- TGI (UACC-62 melanoma): > 562 µM
- TGI (OVCAR-3 ovarian): > 562 µM
- TGI (SN12C renal): > 562 µM
- TGI (MOLT-4 leukemia): > 562 µM
- TGI (EKVX NSCLC): > 562 µM
- TGI (HT29 colon): > 562 µM
- TGI (SK-MEL-5 melanoma): > 562 µM
- TGI (SNB-75 CNS): > 562 µM
- TGI (DMS 273 small cell lung): > 562 µM
- TGI (SN12K1 renal): > 562 µM
- TGI (SNB-78 CNS): > 562 µM
- TGI (M19-MEL melanoma): > 562 µM
- TGI (K-562 leukemia): > 562 µM
- TGI (NCI/ADR-RES ovarian): > 562 µM
- TGI (SW-620 colon): > 562 µM
- TGI (U251 CNS): > 562 µM
- TGI (OVCAR-8 ovarian): > 562 µM
- TGI (NCI-H23 lung): > 562 µM
- TGI (SF-268 CNS): > 562 µM
- TGI (OVCAR-4 ovarian): > 562 µM
- TGI (OVCAR-5 ovarian): > 562 µM
- TGI (UACC-257 melanoma): > 562 µM
- TGI (HOP-62 NSCLC): > 562 µM
